This is an account of results in patent publication US9956293B2, “Targeted therapeutics” (Madrigal Pharmaceuticals, Inc., priority 2014, dated 2018).

In the first assay the test system is HER2. In words: HER2 degradation assay with BT-474 cell line (Example 12, FACS). It is filed as cell-based. The following applies: Homo sapiens, BT-474; SDC-TRAPs of the 41st table. An excerpt: HER2 Degradation Assay with BT-474 Cell Line
HER2 has emerged as a key target for anticancer drugs due to its intrinsic involvement in the phosphatidylinositol-3-kinase-Akt/protein kinase B (PI3K-Akt) and the mitogen-activated protein kinase (MAPK) pathways, both of which suppress apoptosis and promote tumor cell survival, gene transcription, angiogenesis, cellular proliferation, migration, mitosis, and differentiation. The degradation of HER2 is a measure of efficacy of anticancer therapeutics that target Hsp90. Accordingly, the SDC-TRAP molecules of the invention that comprise a binding moiety that binds Hsp90 were tested in the following HER2 degradation assay.
BT-474 cells (human breast cancer cell line ATCC HTB-20) were obtained from ATCC and seeded into 12-well tissue culture plates at 0.2×10^6/1.8 mL/well. […] Each test compound was titrated in 4-fold dilutions from 5 μM to 78 nM with DMSO and 200 μL of the titration was added to each well of the cell plate. The DMSO final concentration was 0.2%. Cells were incubated overnight at 37° C. in 5% CO2.
Media was decanted from the plate, cells were washed 1× in PBS. 400 μL trypsin (EDTA) per well was added, and the cells were incubated for 2 to 3 minutes. Cells were collected into FACS tubes containing 1 ml culture medium to neutralize the trypsin and were centrifuged for 5 minutes at 1200 rpm. Supernatant was decanted and the cells were resuspended in 5 μL FITC (anti HER2/nu)/200 μL staining buffer (1×PBS+1% FBS+0.05% Sodium Azide)/tube. Controls were […] IgG isotype control and staining buffer only. Tubes were incubated for 30 minutes in the dark at room temperature. 1 mL staining buffer was added to each tube and the tubes were centrifuged for 6 minutes at 1200 rpm. The supernatant was decanted and 300 μL staining buffer was added to each tube, which was store at 4° C. for FACS (cytometer) analysis. The cytometer readout was normalized and the potency of each compound is evaluated with IC50 calculated with XLfit™ software.
In turn, `CC(C)c1cc(-c2nnc(O)n2-c2ccc(CC3CCN(CC4CCN(C(=O)c5ccc(CCc6c[nH]c7nc(N)[nH]c(=O)c67)cc5)CC4)CC3)cc2)c(O)cc1O` [SDC-TRAP-0103, 2-amino-5-(4-(4-((4-(4-(3-(2,4-dihydroxy-5-isopropylphenyl)-5-hydroxy-4H-1,2,4-triazol-4-yl)benzyl)piperidin-1-yl)methyl)piperidine-1-carbonyl)phenethyl)-3H-pyrrolo[2,3-d]pyrimidin-4(7H)-one] returned an IC50 of 0.245 µM.

Still in this assay, the particulars now being: Homo sapiens; BT-474 cells.
For the compound `CC(C)c1cc(-c2nnc(O)n2-c2ccc(CN3CCN(CCN(C)C(=O)Nc4cccc5c4CN(C4CCC(=O)NC4=O)C5=O)CC3)cc2)c(O)cc1O` (stereo not shown) [SDC-TRAP-0105, 1-(2-(4-(4-(3-(2,4-dihydroxy-5-isopropylphenyl)-5-hydroxy-4H-1,2,4-triazol-4-yl)benzyl)piperazin-1-yl)ethyl)-3-(2-(2,6-dioxopiperidin-3-yl)-1-oxoisoindolin-4-yl)-1-methylurea], the IC50 was above 10 µM.

Compound `CC(C)c1cc(-c2nnc(O)n2-c2ccc(CCC3CCN(C(=O)Nc4cccc5c4CN(C4CCC(=O)NC4=O)C5=O)CC3)cc2)c(O)cc1O` (stereo not shown) [SDC-TRAP-0108, 4-(4-(3-(2,4-dihydroxy-5-isopropylphenyl)-5-hydroxy-4H-1,2,4-triazol-4-yl)phenethyl)-N-(2-(2,6-dioxopiperidin-3-yl)-1-oxoisoindolin-4-yl) piperidine-1-carboxamide] gave an IC50 above 10 µM.

With `CC(C)c1cc(-c2nnc(O)n2-c2ccc(CN3CCN(C(=O)Nc4cccc5c4CN(C4CCC(=O)NC4=O)C5=O)CC3)cc2)c(O)cc1O` (stereo not shown) [SDC-TRAP-0109, 4-(4-(3-(2,4-di hydroxy-5-isopropylphenyl)-5-hydroxy-4H-1,2,4-triazol-4-yl)benzyl)-N-(2-(2,6-dioxopiperidin-3-yl)-1-oxoisoindolin-4-yl)piperazine-1-carboxamide], the IC50 is above 10 µM.

In turn, `CC(C)c1cc(-c2nnc(O)n2-c2ccc(N3CCN(CC(=O)Nc4cccc5c4CN(C4CCC(=O)NC4=O)C5=O)CC3)cc2)c(O)cc1O` (stereo not shown) [SDC-TRAP-0110, 2-(4-(4-(3-(2,4-dihydroxy-5-isopropylphenyl)-5-hydroxy-4H-1,2,4-triazol-4-yl)phenyl)piperazin-1-yl)-N-(2-(2,6-dioxopiperidin-3-yl)-1-oxoisoindolin-4-yl)acetamide] had an IC50 above 10 µM.

`CC(C)c1cc(-c2nnc(O)n2-c2ccc(CC3CCN(C(=O)Nc4cccc5c4CN(C4CCC(=O)NC4=O)C5=O)CC3)cc2)c(O)cc1O` (stereo not shown) [SDC-TRAP-0114, 4-(4-(3-(2,4-dihydroxy-5-isopropylphenyl)-5-hydroxy-4H-1,2,4-triazol-4-yl)benzyl)-N-(2-(2,6-dioxopiperidin-3-yl)-1-oxoisoindolin-4-yl)piperidine-1-carboxamide] returned an IC50 of 4.31 µM.

`COc1cc(O)c(-c2nnc(C(=O)NC(C)C)n2-c2ccc(CN3CCC(C(=O)Nc4cccc5c4CN(C4CCC(=O)NC4=O)C5=O)CC3)cc2)cc1C(C)C` (stereo not shown) [SDC-TRAP-0115, N-(2-(2,6-dioxopiperidin-3-yl)-1-oxoisoindolin-4-yl)-1-(4-(3-(2-hydroxy-5-isopropyl-4-methoxyphenyl)-5-(isopropylcarbamoyl)-4H-1,2,4-triazol-4-yl)benzyl)piperidine-4-carboxamide] came in with an IC50 of 1.89 µM. Compared with the last compound, the IC50 is about 2.3-fold lower.

Take `CC(C)c1cc(-c2nnc(O)n2-c2ccc(CN3CCN(C(=O)ONC(=O)CCCCCCC(=O)Nc4ccccc4)CC3)cc2)c(O)cc1O` [SDC-TRAP-0117, N1-((4-(4-(3-(2,4-dihydroxy-5-isopropylphenyl)-5-hydroxy-4H-1,2,4-triazol-4-yl)benzyl)piperazine-1-carbonyl)oxy)-N8-phenyloctanediamide]: the IC50 amounted to 1.09 µM.

`CC(C)c1cc(-c2nnc(O)n2-c2ccc3c(ccn3CCC3CCN(C(=O)ONC(=O)CCCCCCC(=O)Nc4ccccc4)CC3)c2)c(O)cc1O` [SDC-TRAP-0118, N1-((4-(2-(5-(3-(2,4-dihydroxy-5-isopropylphenyl)-5-hydroxy-4H-1,2,4-triazol-4-yl)-1H-indol-1-yl)ethyl)piperidine-1-carbonyl)oxy)-N8-phenyloctanediamide] returned an IC50 of 2.35 µM.

`CC(C)c1cc(-c2nnc(O)n2-c2ccc3c(ccn3CCC3CCN(C(=O)Nc4cccc5c4CN(C4CCC(=O)NC4=O)C5=O)CC3)c2)c(O)cc1O` (stereo not shown) [SDC-TRAP-0119, 4-(2-(5-(3-(2,4-dihydroxy-5-isopropylphenyl)-5-hydroxy-4H-1,2,4-triazol-4-yl)-1H-indol-1-yl)ethyl)-N-(2-(2,6-dioxopiperidin-3-yl)-1-oxoisoindolin-4-yl)piperidine-1-carboxamide] displayed a 50% inhibitory concentration (IC50) above 10 µM.

`CC(C)c1cc(-c2nnc(O)n2-c2ccc(CN3CCN(C(=O)COC(=O)Nc4cccc5c4CN(C4CCC(=O)NC4=O)C5=O)CC3)cc2)c(O)cc1O` (stereo not shown) [SDC-TRAP-0121, 2-(4-(4-(3-(2,4-dihydroxy-5-isopropylphenyl)-5-hydroxy-4H-1,2,4-triazol-4-yl)benzyl)piperazin-1-yl)-2-oxoethyl(2-(2,6-dioxopiperidin-3-yl)-1-oxoisoindolin-4-yl)carbamate] registered an IC50 of 3 µM.

`CC(C)c1cc(-c2nnc(O)n2-c2ccc3c(ccn3CCOC(=O)Nc3cccc4c3CN(C3CCC(=O)NC3=O)C4=O)c2)c(O)cc1O` (stereo not shown) [SDC-TRAP-0122, 2-(5-(3-(2,4-dihydroxy-5-isopropylphenyl)-5-hydroxy-4H-1,2,4-triazol-4-yl)-1H-indol-1-yl)ethyl (2-(2,6-dioxopiperidin-3-yl)-1-oxoisoindolin-4-yl)carbamate] came in with a concentration for half-maximal inhibition (IC50) above 10 µM.

`CCNC(=O)c1nnc(-c2cc(C(C)C)c(O)cc2O)n1-c1ccc(CN2CCC(C(=O)N3CCC(OC(=O)Nc4cccc5c4CN(C4CCC(=O)NC4=O)C5=O)CC3)CC2)cc1` (stereo not shown) [SDC-TRAP-0123, 1-(1-(4-(3-(2,4-Dihydroxy-5-isopropylphenyl)-5-(ethylcarbamoyl)-4H-1,2,4-triazol-4-yl)benzyl)piperidine-4-carbonyl)piperidin-4-yl (2-(2,6-dioxopiperidin-3-yl)-1-oxoisoindolin-4-yl)carbamate] yielded a half-inhibitory concentration (IC50) of 0.657 µM.

In the case of `CCNC(=O)c1nnc(-c2cc(C(C)C)c(O)cc2O)n1-c1ccc(CN2CCC(C(=O)N3CCC(COC(=O)Nc4cccc5c4CN(C4CCC(=O)NC4=O)C5=O)CC3)CC2)cc1` (stereo not shown) [SDC-TRAP-0124, (1-(1-(4-(3-(2,4-Dihydroxy-5-isopropylphenyl)-5-(ethylcarbamoyl)-4H-1,2,4-triazol-4-yl)benzyl)piperidine-4-carbonyl)piperidin-4-yl)methyl (2-(2,6-dioxopiperidin-3-yl)-1-oxoisoindolin-4-yl)carbamate], the 50% inhibitory concentration (IC50) was found to be 0.358 µM.

On to `CCNC(=O)c1nnc(-c2cc(C(C)C)c(O)cc2O)n1-c1ccc(Oc2ccc(C(=O)N3CCC(COC(=O)Nc4cccc5c4CN(C4CCC(=O)NC4=O)C5=O)CC3)cc2)cc1` (stereo not shown) [SDC-TRAP-0125, (1-(4-(4-(3-(2,4-Dihydroxy-5-isopropylphenyl)-5-(ethylcarbamoyl)-4H-1,2,4-triazol-4-yl)phenoxy)benzoyl)piperidin-4-yl)methyl (2-(2,6-dioxopiperidin-3-yl)-1-oxoisoindolin-4-yl)carbamate], for which the IC50 came out at 0.312 µM. This IC50 and that of the compound before are within 1.5-fold of each other.

`CC(C)c1cc(-c2nnc(O)n2-c2ccc(N3CCN(CCCC(=O)Nc4cccc5c4CN(C4CCC(=O)NC4=O)C5=O)CC3)cc2)c(O)cc1O` (stereo not shown) [SDC-TRAP-0126, 4-(4-(4-(3-(2,4-dihydroxy-5-isopropylphenyl)-5-hydroxy-4H-1,2,4-triazol-4-yl)phenyl)piperazin-1-yl)-N-(2-(2,6-dioxopiperidin-3-yl)-1-oxoisoindolin-4-yl) butanamide]: inhibition was half-maximal at 8.64 µM (IC50). Against the preceding compound, the IC50 is about 28-fold higher.

Take `CC(C)c1cc(-c2nnc(O)n2-c2ccc(CC(=O)N(C)CCOC(=O)Nc3cccc4c3CN(C3CCC(=O)NC3=O)C4=O)cc2)c(O)cc1O` (stereo not shown) [SDC-TRAP-0127, 2-(2-(4-(3-(2,4-di hydroxy-5-isopropylphenyl)-5-hydroxy-4H-1,2,4-triazol-4-yl)phenyl)-N-methylacetamido)ethyl(2-(2,6-dioxopiperidin-3-yl)-1-oxoisoindolin-4-yl)carbamate]: 8.09 µM corresponded to half-maximal inhibition (IC50).

`CC(C)c1cc(-c2nnc(O)n2-c2ccc(CN3CCN(CC(=O)Nc4cccc5c4CN(C4CCC(=O)NC4=O)C5=O)CC3)cc2)c(O)cc1O` (stereo not shown) [SDC-TRAP-0128, 2-(4-(4-(3-(2,4-dihydroxy-5-isopropylphenyl)-5-hydroxy-4H-1,2,4-triazol-4-yl)benzyl)piperazin-1-yl)-N-(2-(2,6-dioxopiperidin-3-yl)-1-oxoisoindolin-4-yl)acetamide] came in with an IC50 of 6.91 µM. The IC50 values of the last two compounds are within 1.5-fold of each other.

`CC(C)c1cc(-c2nnc(O)n2-c2ccc3c(ccn3CCC3CCN(CC(=O)Nc4cccc5c4CN(C4CCC(=O)NC4=O)C5=O)CC3)c2)c(O)cc1O` (stereo not shown) [SDC-TRAP-0129, 2-(4-(2-(5-(3-(2,4-dihydroxy-5-isopropylphenyl)-5-hydroxy-4H-1,2,4-triazol-4-yl)-1H-indol-1-yl)ethyl)piperidin-1-yl)-N-(2-(2,6-dioxopiperidin-3-yl)-1-oxoisoindolin-4-yl)acetamide] yielded an IC50 of 4.52 µM. This IC50 lies about 1.5-fold lower than the previous one.
